According to ChEMBL document CHEMBL1138961, “Highly selective and potent agonists of sphingosine-1-phosphate 1 (S1P1) receptor” (Bioorg Med Chem Lett, 2006):
pEC50: −log10 of the molar value. Calls of active or inactive are those of the source. No cut-off for these calls is given here.

Key:
[1] = species on record: Homo sapiens; test: Selectivity for S1P1 receptor over S1P5 receptor
[2] = target: T1, Sphingosine 1-phosphate receptor 1 (Homo sapiens, UniProt P21453); test: Agonist activity at S1P1 receptor assessed as induction of [35S]GTP-gamma-S binding; type: functional
[3] = species on record: Homo sapiens; test: Selectivity for S1P1 receptor over S1P2 receptor
[4] = species on record: Homo sapiens; test: Selectivity for S1P1 receptor over S1P4 receptor
[5] = target: T2, Sphingosine 1-phosphate receptor 3 (Homo sapiens, UniProt Q99500); test: Agonist activity at S1P3 receptor assessed as induction of [35S]GTP-gamma-S binding; type: functional
[6] = target: T3, Sphingosine 1-phosphate receptor 5 (Homo sapiens, UniProt Q9H228); test: Agonist activity at S1P5 receptor assessed as induction of [35S]GTP-gamma-S binding; type: functional
[7] = target: T2, Sphingosine 1-phosphate receptor 3; test: Inhibition of S1P3 receptor at 10 uM
[8] = target: T1, Sphingosine 1-phosphate receptor 1; test: Inhibition of S1P1 receptor at 10 uM
[9] = target: T3, Sphingosine 1-phosphate receptor 5; test: Inhibition of S1P5 receptor at 10 uM
[10] = Oral bioavailability in rat; type: ADME, organism-based; conditions: in vivo
[11] = test system: Mus musculus; test: Lowering of lymphocytes in mouse at 0.3 mg/kg, po; type: functional, organism-based; set-up: dose 0.3 mg/kg
[12] = species on record: Homo sapiens; test: Selectivity for S1P1 receptor over S1P3 receptor
[13] = Half life in rat; type: ADME, organism-based; conditions: in vivo

T2 sequence (Q99500 whole entry): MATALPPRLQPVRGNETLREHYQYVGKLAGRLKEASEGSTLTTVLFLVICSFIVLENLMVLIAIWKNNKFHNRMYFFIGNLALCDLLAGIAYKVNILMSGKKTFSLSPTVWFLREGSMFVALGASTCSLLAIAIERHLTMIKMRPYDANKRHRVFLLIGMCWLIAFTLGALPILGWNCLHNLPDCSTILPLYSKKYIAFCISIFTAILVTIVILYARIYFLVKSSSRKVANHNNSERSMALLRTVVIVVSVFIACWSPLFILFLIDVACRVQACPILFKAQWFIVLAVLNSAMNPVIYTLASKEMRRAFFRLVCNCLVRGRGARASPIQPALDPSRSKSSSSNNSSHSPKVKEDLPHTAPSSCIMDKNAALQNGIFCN
T1 sequence (P21453 whole entry): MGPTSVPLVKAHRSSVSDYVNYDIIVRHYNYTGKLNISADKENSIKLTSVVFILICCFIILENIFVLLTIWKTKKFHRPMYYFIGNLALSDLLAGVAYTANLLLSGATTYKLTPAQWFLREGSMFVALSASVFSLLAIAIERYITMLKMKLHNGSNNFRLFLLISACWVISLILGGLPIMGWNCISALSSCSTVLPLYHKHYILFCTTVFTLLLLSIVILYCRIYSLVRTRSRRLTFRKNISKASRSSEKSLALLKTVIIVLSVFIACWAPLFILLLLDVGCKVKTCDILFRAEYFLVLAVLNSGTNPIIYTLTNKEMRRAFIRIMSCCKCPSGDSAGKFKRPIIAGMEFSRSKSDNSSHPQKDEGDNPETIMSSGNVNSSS
T3 sequence (Q9H228 whole entry): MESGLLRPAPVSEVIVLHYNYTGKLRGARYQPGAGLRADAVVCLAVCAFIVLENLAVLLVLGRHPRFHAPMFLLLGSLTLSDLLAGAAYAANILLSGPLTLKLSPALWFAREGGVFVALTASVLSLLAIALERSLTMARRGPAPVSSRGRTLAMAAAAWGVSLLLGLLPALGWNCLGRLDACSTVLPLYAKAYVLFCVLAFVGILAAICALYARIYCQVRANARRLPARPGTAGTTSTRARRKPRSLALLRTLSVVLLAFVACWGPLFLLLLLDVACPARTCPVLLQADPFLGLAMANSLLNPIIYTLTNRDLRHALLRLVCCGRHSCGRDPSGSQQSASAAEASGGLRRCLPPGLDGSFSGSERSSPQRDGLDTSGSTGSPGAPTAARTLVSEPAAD

Row | Selectivity ratio [1] | pEC50 [2] | Selectivity ratio [3] | Selectivity ratio [4] | pEC50 [5] | pEC50 [6] | Structure (SMILES) | other results
1 | 120 | 9.55 | > 1000 | > 1000 | – | – | CCC(C)Oc1ccc(-c2nnc(-c3ccc(CCC(=O)O)cc3C)s2)cc1C#N (stereo not drawn) | –
2 | 220 | 7.35 | > 1000 | > 1000 | – | – | Cc1cc(CCC(=O)O)ccc1-c1nnc(-c2ccc(OCC#N)c(C#N)c2)s1 | –
3 | 110 | 7.03 | > 1000 | > 1000 | – | – | CC(=O)Oc1ccc(-c2nnc(-c3ccc(CCC(=O)O)cc3C)s2)cc1C#N | –
4 | 230 | 9.21 | > 1000 | > 1000 | – | – | Cc1cc(CCC(=O)O)ccc1-c1nnc(-c2ccc(OCC3CC3)c(C#N)c2)s1 | –
5 | 230 | 8.96 | > 1000 | > 1000 | – | – | Cc1cc(CCC(=O)O)ccc1-c1nnc(-c2ccc(OCC(F)F)c(C#N)c2)s1 | –
6 | 320 | 9.80 | > 1000 | > 1000 | – | – | Cc1cc(CCC(=O)O)ccc1-c1nnc(-c2ccc(CC(C)C)c(C#N)c2)s1 | –
7 | 210 | 9.70 | > 1000 | > 1000 | – | – | Cc1cc(CCC(=O)O)ccc1-c1nnc(-c2ccc(OC(C)C)c(C#N)c2)s1 | –
8 | 18 | 6.24 | > 1000 | > 1000 | – | – | Cc1cc(CCC(=O)O)ccc1-c1nnc(-c2ccc(F)c(C#N)c2)s1 | –
9 | 480 | 8.68 | > 1000 | > 1000 | – | – | CCOc1ccc(-c2nnc(-c3ccc(CCC(=O)O)cc3C)s2)cc1C#N | –
10 | 110 | 8.47 | > 1000 | > 1000 | – | – | CCCOc1ccc(-c2nnc(-c3ccc(CCC(=O)O)cc3C)s2)cc1C#N | –
11 | 390 | 9.64 | > 1000 | > 1000 | – | – | Cc1cc(CCC(=O)O)ccc1-c1nnc(-c2ccc(OC(CF)CF)c(C#N)c2)s1 | –
12 | 170 | 9.10 | > 1000 | > 1000 | – | – | Cc1cc(CCC(=O)O)ccc1-c1nnc(-c2ccc(OC3CCC3)c(C#N)c2)s1 | –
13 | 400 | 9.22 | > 1000 | > 1000 | – | – | Cc1cc(CCC(=O)O)ccc1-c1nnc(-c2ccc(OCC(F)(F)F)c(C#N)c2)s1 | –
14 | 200 | 8.55 | > 1000 | > 1000 | – | – | Cc1cc(CCC(=O)O)ccc1-c1nnc(-c2ccc(OCC(C)C)c(C#N)c2)s1 | –
15 | – | < 6.00 | > 1000 | > 1000 | – | – | Cc1cc(CCC(=O)O)ccc1-c1nnc(-c2cccc(C#N)c2)s1 | –
16 | 30 | 8.11 | > 1000 | > 1000 | – | – | Cc1cc(CCC(=O)O)ccc1-c1nnc(-c2ccc(OCCC(F)(F)F)c(C#N)c2)s1 | –
17 | 28 | 6.44 | > 1000 | > 1000 | – | – | Cc1cc(CCC(=O)O)ccc1-c1nnc(-c2ccc(OCC(=O)O)c(C#N)c2)s1 | –
18 | > 100 | 8.02 | > 1000 | > 1000 | – | – | Cc1cc(CCC(=O)O)ccc1-c1nnc(-c2ccc(OCCF)c(C#N)c2)s1 | –
19 | > 100 | 7.01 | > 1000 | > 1000 | – | – | COc1ccc(-c2nnc(-c3ccc(CCC(=O)O)cc3C)s2)cc1C#N | –

Continued, molecule first:

Row | Structure (SMILES) | Selectivity ratio [1] | pEC50 [2] | Selectivity ratio [3] | Selectivity ratio [4] | pEC50 [5] | pEC50 [6] | other results
20 | Cc1cc(CCC(=O)O)ccc1-c1cc(-c2ccc(OC(C)C)c(C#N)c2)cs1 | – | 6.54 | > 1000 | > 1000 | < 5.00 | 5.49 | –
21 | Cc1cc(CCC(=O)O)ccc1-c1nc(C)c(-c2ccc(OC(C)C)c(C#N)c2)s1 | – | < 5.44 | > 1000 | > 1000 | < 5.00 | < 5.00 | –
22 | Cc1cc(CCC(=O)O)ccc1-c1noc(-c2ccc(OC(C)C)c(C#N)c2)n1 | – | 10.00 | > 1000 | > 1000 | 6.96 | 7.89 | –
23 | Cc1cc(CCC(=O)O)ccc1-c1nc(-c2ccc(OC(C)C)c(C#N)c2)n[nH]1 | – | – | > 1000 | > 1000 | – | – | –
24 | Cc1cc(CCC(=O)O)ccc1-c1nnc(-c2ccc(OC(C)C)c(C#N)c2)[nH]1 | – | 6.42 | – | – | < 5.00 | < 5.00 | –
25 | Cc1cc(CCC(=O)O)ccc1-c1nnc(-c2ccc(OC(C)C)c(C#N)c2)n1C | – | < 5.00 | > 1000 | > 1000 | < 5.00 | < 5.00 | –
26 | Cc1cc(CCC(=O)O)ccc1-c1csc(-c2cnc(OC(C)C)c(Cl)c2)n1 | – | – | > 1000 | > 1000 | – | – | inhibition [7]: 0%; inhibition [8]: 30%; inhibition [9]: 6%
27 | Cc1cc(CCC(=O)O)ccc1-c1ccc(-c2ccc(OC(C)C)c(C#N)c2)s1 | – | 9.03 | > 1000 | > 1000 | < 5.00 | 6.66 | –
28 | Cc1cc(CCC(=O)O)ccc1-c1ccc(-c2ccc(OC(C)C)c(C#N)c2)n1C | – | < 5.00 | > 1000 | > 1000 | < 5.00 | < 5.00 | –
29 | Cc1cc(CCC(=O)O)ccc1-c1noc(-c2cnc(OC(C)C)c(Cl)c2)n1 | – | 9.14 | > 1000 | > 1000 | 6.02 | 6.02 | –
30 | Cc1cc(CCC(=O)O)ccc1-c1nnc(-c2ccc(-c3cccs3)c(C#N)c2)s1 | 110 | 8.72 | > 1000 | > 1000 | – | – | –
31 | Cc1cc(CCC(=O)O)ccc1-c1coc(-c2cnc(OC(C)C)c(Cl)c2)n1 | – | 6.00 | > 1000 | > 1000 | – | – | inhibition [7]: 8%; inhibition [9]: 0%
32 | Cc1cc(CCC(=O)O)ccc1-c1ncc(-c2ccc(OC(C)C)c(C#N)c2)s1 | > 600 | 9.74 | > 1000 | > 1000 | < 5.00 | 6.92 | bioavailability [10]: 39%; Activity [11]: Active; Selectivity ratio [12]: > 10000; half-life [13]: < 1 h
33 | Cc1cc(CCC(=O)O)ccc1-c1ncc(-c2ccc(OC(C)C)c(C#N)c2)o1 | – | 8.29 | > 1000 | > 1000 | < 5.00 | < 5.00 | –
34 | Cc1cc(CCC(=O)O)ccc1-c1nnn(-c2ccc(OC(C)C)c(C#N)c2)n1 | – | 8.80 | > 1000 | > 1000 | < 5.00 | 7.37 | –
35 | Cc1cc(CCC(=O)O)ccc1-c1csc(-c2ccc(OC(C)C)c(C#N)c2)c1 | – | 5.92 | > 1000 | > 1000 | < 5.00 | 5.49 | –
36 | Cc1cc(CCC(=O)O)ccc1-c1nnc(-c2cnc(OC(C)C)c(Cl)c2)s1 | – | 8.68 | > 1000 | > 1000 | – | 5.89 | inhibition [7]: 36%
37 | Cc1cc(CCC(=O)O)ccc1-c1ccc(-c2ccc(OC(C)C)c(C#N)c2)o1 | – | < 5.00 | > 1000 | > 1000 | < 5.00 | < 5.00 | –
38 | Cc1cc(CCC(=O)O)ccc1-c1nnc(-c2ccc(OC(C)C)c(C#N)c2)o1 | – | 8.96 | > 1000 | > 1000 | < 5.00 | 6.34 | –
39 | Cc1cc(CCC(=O)O)ccc1-c1nnc(-c2ccc(OC(C(F)(F)F)C(F)(F)F)c(C#N)c2)s1 | 2 | 7.42 | > 1000 | > 1000 | – | – | –
40 | Cc1cc(CCC(=O)O)ccc1-c1nnc(-c2cnc(OC(C)C)c(Cl)c2)o1 | – | 7.72 | > 1000 | > 1000 | – | – | inhibition [7]: 82%; inhibition [9]: 44%
41 | Cc1cc(CCC(=O)O)ccc1-c1cnc(-c2ccc(OC(C)C)c(C#N)c2)s1 | – | 7.85 | > 1000 | > 1000 | < 5.00 | 6.70 | –
42 | Cc1cc(CCC(=O)O)ccc1-n1nnc(-c2ccc(OC(C)C)c(C#N)c2)n1 | – | 9.01 | > 1000 | > 1000 | < 5.00 | 6.82 | –
43 | Cc1cc(CCC(=O)O)ccc1-c1noc(-c2ccc(OC(C)C)c(Cl)c2)n1 | – | 9.82 | > 1000 | > 1000 | 6.03 | 7.14 | –
